Experimental findings from patent publication US12642805B2, “Use of oxygenated cholesterol sulfates for treating at least one of insulin resistance, diabetes, and prediabetes” (Medicis Pharmaceutical Corporation, priority 2020, dated 2026) are described below.

A short description of the series: metabolite profiling of plasma, urine, feces after intravenous dose. The conditions noted are these: rats 10 mg/kg intravenous.

Experimental: Samples were profiled using high performance liquid chromatography with radiodetection and metabolic characterization was performed using mass spectrometry and tandem mass spectrometry analysis.

As to `C[C@H](CCCC(C)(C)O)[C@H]1CC[C@H]2[C@@H]3CC=C4C[C@@H](OS(=O)(=O)O)CC[C@]4(C)[C@H]3CC[C@]12C` [25HC3S, 25-hydroxycholesterol-3-sulfate], the “% of dose in feces” value (pools 0 to 48 hours) turned out to be 2%. Moreover, the “share of the exposure (AUC) to 25HC3S related radioactivity in plasma” value (up to 1 hour post-dose) is listed as “approximately 54%”.
